Measured values from EP4660182A1, “NAV1.7- AND/OR NAV1.8-INHIBITING ARYL PYRIDINE COMPOUNDS, PROCESSES FOR THE PREPARATION THEREOF, COMPOSITIONS, USES, METHODS FOR TREATMENT USING SAME, AND KITS” (Eurofarma Laboratórios S.A., priority 2023, dated 2024).

What was measured:
[1] = target: T1, human sodium channels Nav 1.8 (Homo sapiens, UniProt Q9Y5Y9); assay: Automated whole-cell voltage-clamp (ScreenPatch 384P) sodium current block, Nav 1.8; assay type: cell-based; settings: CHO cells stably expressing human Nav 1.8; inactivation step -40 mV 8 s, test step 10 mV (TP1A); eight concentrations; exposure at least five minutes; room temperature; read-out: Nav1.8 IC50
T1 construct: expressed in transfected cells
T1 sequence (Q9Y5Y9 whole entry): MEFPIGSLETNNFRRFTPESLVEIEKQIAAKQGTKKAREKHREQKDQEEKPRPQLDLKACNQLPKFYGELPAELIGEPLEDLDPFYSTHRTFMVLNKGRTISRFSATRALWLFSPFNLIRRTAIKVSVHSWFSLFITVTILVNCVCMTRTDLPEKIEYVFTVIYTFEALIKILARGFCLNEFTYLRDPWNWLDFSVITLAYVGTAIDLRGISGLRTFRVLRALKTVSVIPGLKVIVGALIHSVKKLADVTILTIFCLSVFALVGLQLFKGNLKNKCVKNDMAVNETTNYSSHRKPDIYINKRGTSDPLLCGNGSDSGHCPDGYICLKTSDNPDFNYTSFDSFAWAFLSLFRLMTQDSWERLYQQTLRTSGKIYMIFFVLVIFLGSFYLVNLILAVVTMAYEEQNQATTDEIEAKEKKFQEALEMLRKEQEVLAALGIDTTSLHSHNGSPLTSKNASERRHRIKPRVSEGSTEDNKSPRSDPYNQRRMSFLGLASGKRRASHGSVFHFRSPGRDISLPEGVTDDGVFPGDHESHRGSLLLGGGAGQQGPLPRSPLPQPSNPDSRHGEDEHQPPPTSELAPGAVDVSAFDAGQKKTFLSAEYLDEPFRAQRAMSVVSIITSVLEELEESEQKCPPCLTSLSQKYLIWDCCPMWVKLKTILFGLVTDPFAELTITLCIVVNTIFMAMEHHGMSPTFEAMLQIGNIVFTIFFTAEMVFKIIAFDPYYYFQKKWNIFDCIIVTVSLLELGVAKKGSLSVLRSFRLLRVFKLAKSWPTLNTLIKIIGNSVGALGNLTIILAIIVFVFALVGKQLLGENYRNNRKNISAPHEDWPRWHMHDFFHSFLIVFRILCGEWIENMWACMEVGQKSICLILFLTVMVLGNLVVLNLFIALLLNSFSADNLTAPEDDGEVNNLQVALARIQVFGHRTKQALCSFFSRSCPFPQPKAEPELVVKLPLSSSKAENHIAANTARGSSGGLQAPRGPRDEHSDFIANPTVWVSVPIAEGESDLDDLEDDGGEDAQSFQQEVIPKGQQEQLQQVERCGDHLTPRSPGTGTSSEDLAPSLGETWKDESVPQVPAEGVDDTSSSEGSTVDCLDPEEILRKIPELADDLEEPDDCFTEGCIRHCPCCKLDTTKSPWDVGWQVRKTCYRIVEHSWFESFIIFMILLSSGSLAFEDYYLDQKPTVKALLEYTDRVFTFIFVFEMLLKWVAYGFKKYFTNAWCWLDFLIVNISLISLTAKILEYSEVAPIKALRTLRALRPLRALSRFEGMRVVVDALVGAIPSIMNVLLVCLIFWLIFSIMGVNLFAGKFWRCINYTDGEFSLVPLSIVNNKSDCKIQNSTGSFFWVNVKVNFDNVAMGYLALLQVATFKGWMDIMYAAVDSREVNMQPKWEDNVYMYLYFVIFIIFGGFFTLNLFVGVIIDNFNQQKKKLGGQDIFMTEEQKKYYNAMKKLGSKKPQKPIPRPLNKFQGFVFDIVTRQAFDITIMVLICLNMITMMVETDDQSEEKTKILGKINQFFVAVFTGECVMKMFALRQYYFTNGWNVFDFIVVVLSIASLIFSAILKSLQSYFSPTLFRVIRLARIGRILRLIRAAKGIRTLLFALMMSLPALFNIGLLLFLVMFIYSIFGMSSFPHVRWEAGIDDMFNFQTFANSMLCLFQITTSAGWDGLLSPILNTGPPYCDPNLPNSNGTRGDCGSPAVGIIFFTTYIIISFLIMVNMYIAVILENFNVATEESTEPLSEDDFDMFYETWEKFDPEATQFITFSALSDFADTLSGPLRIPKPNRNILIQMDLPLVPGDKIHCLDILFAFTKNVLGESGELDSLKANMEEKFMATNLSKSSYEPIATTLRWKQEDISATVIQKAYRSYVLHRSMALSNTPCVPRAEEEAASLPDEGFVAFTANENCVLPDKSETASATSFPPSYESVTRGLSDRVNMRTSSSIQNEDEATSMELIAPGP
Protocol: (§1) Biological assays were performed on Chinese hamster ovary (CHO) cells that express human sodium channels Nav 1.8 or Nav 1.7 in a stable manner.
(§2) The experimental protocol voltage-clamp using the whole cell configuration was established on the automated ScreenPatch® 384P platform (SP384PE, Nanion Technologies, Livingston, NJ) and the results were recorded with a Nanion 384-well Patch Clamp chip (NPC) (Nanion Technologies, Livingston, NJ).
(§3) Formula I compounds were diluted in eight concentrations in the extracellular solution composed of saline solution, buffered with HEPES (mM): NaCl, 137; KCl, 4; CaCl2, 3,8; MgCl2, 1; HEPES, 10; Glucose, 10; pH 7.4. The […], 50; CsF, 90; MgCl2, 5; EGTA, 5; HEPES, 10; pH 7.2. The duration of exposure of each compound with cells expressing Nav 1.7 or Nav 1.8 was at least five minutes and the assays were performed at room temperature.
(§4) The measurements of the sodium currents of Nav 1.8 and Nav 1.7 were obtained using the voltage protocol described below.
(§5) A holding voltage of -100 mV was established followed by an inactivation voltage step at -40 mV for 8 seconds, followed by a step of -100 mV for 20 ms, followed by a 20 ms step for 10 mV for Nav 1.8 or 0 mV for Nav 1.7 (TP1A) before returning to the holding voltage of -100 mV.
(§6) The protocol was repeated at a frequency of 0.05 Hz and the amplitude of the current was quantified throughout the recording of the TP1A phase. The variation in the amplitude of the peak current was evaluated according to the formula described below, after exposing the cells expressing the channels to each concentration of the different compounds: % Block = (1−(ITP1A,molecule/ITP1A,basal)×100%, [formula] wherein ITP1A,basal and ITP1A,molecule represent the peaks of sodium current input into TP1A before exposure to the compound and in the presence of the compound, respectively.
(§7) Data were obtained by nonlinear regression (nonlinear least squares) with XLfit for Excel (Microsoft, Redmond, WA).
(§8) The compounds were tested in at least one assay to obtain the value of CI50. For compounds that were tested in two or more assays, the results are described as the means of the CI50 values.

[2] = target: T2, human sodium channels Nav 1.7 (Homo sapiens, UniProt Q15858); assay: Automated whole-cell voltage-clamp (ScreenPatch 384P) sodium current block, Nav 1.7; assay type: cell-based; settings: CHO cells stably expressing human Nav 1.7; inactivation step -40 mV 8 s, test step 0 mV (TP1A); eight concentrations; exposure at least five minutes; room temperature; read-out: Nav1.7 IC50
T2 construct: expressed in transfected cells
T2 sequence (Q15858 whole entry): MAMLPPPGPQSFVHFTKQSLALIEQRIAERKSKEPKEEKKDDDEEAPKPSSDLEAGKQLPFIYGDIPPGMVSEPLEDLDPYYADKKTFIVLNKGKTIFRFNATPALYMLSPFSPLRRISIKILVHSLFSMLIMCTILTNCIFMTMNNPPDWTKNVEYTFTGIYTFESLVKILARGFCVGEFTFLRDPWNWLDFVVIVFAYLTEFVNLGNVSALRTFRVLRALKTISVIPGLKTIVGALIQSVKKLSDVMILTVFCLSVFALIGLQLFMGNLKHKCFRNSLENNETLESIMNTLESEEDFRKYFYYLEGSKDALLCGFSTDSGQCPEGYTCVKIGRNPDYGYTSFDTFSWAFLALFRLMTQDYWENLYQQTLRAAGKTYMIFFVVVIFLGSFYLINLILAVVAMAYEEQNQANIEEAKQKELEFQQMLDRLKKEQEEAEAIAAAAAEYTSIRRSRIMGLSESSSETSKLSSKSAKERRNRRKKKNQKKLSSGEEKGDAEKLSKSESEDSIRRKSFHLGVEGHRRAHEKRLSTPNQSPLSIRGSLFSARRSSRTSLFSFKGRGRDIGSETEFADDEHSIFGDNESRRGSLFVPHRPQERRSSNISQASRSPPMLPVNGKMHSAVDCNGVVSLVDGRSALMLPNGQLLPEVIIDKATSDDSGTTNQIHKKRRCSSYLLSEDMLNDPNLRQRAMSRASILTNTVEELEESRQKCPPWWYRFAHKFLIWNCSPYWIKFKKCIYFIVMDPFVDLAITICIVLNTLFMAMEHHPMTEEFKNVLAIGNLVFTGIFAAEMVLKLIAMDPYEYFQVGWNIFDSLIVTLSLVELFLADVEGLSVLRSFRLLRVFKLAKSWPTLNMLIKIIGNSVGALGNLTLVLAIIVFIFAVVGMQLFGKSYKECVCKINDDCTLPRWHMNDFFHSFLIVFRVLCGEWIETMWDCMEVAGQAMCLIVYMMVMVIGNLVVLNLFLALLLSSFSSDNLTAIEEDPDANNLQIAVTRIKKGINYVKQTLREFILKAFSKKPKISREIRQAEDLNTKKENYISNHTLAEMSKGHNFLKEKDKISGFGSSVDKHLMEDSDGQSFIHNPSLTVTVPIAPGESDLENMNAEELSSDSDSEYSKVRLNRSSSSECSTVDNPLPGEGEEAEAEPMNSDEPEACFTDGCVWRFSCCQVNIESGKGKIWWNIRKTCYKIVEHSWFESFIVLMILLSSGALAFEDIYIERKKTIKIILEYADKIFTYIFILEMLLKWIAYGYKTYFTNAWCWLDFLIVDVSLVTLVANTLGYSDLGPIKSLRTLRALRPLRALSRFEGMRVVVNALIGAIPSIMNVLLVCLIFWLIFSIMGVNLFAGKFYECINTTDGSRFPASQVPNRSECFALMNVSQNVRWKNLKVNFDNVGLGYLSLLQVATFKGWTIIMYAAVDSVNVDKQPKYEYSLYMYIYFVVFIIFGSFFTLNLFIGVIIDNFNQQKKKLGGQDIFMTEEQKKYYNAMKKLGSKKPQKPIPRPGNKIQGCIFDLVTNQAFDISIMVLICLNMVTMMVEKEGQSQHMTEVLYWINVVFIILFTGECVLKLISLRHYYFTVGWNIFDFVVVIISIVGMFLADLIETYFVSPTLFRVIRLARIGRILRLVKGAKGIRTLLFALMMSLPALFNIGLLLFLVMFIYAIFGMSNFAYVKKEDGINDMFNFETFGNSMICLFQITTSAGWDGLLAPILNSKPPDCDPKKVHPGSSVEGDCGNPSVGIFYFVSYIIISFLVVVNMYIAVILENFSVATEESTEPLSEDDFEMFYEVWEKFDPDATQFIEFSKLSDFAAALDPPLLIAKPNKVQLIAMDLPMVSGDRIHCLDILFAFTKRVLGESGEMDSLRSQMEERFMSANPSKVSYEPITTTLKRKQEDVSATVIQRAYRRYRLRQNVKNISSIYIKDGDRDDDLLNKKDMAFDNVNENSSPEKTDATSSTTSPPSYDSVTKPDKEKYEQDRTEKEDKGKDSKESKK
Protocol: as §1, §2, §3, §4, §5, §6, §7, §8

Row | SMILES | IC50 [1] | IC50 [2]
1 | CCOc1ccc(-c2cncc(C(=O)N/N=C/c3cc(OC)cnc3F)n2)c(OC)n1 [Compound 154, (E)-6-(6-ethoxy-2-methoxypyridine-3-yl)-N'-((2-fluoro-5-methoxypyridine-3-yl)methylene)pyrazine-2-carbohydrazide] | < 500 nM | < 500 nM
2 | CCOc1ccc(-c2cncc(C(=O)N/N=C/c3cncn3C)n2)cn1 [Compound 58, (E)-6-(6-ethoxypyridine-3-yl)-N'-((1-methyl-1H-imidazole-5-yl)methylene)pyrazine-2-carbohydrazide] | > 1000 nM | > 1000 nM
3 | CCOc1ccc(-c2cncc(C(=O)N/N=C/c3cc(OC4CCC4)cnc3F)n2)cn1 [Compound 36, (E)-N'-((5-cyclobutoxy-2-fluoropyridine-3-yl)methylene)-6-(6-ethoxypyridine-3-yl)pyrazine-2-carbohydrazide] | < 500 nM | > 1000 nM
4 | O=C(N/N=C/c1cccnc1)c1cncc(-c2ccc(OC(F)(F)F)nc2)n1 [Compound 86, (E)-N'-(pyridine-3-ylmethylene)-6-(6-(trifluoromethoxy)pyridine-3-yl)pyrazine-2-carbohydrazide] | > 1000 nM | > 1000 nM
5 | COc1cnc(C)c(/C=N/NC(=O)c2cncc(-c3ccc(OC(F)F)nc3)n2)c1 [Compound 103, (E)-6-(6-(difluoromethoxy)pyridine-3-yl)-N'-((5-methoxy-2-methylpyridine-3-yl)methylene)pyrazine-2-carbohydrazide] | < 500 nM | > 1000 nM
6 | COc1ccc(F)c(/C=N/NC(=O)c2cncc(-c3ccc(OCC(C)N)nc3)n2)c1 (stereo not drawn) [Compound 136, (E)-6-(6-(2-aminopropoxy)pyridine-3-yl)-N'-(2-fluoro-5-methoxybenzylidene) pyrazine-2-carbohydrazide] | > 1000 nM | > 1000 nM
7 | CCOc1ccc(-c2cncc(C(=O)N/N=C/c3[nH]ccc3C)n2)cn1 [Compound 56, (E)-6-(6-ethoxypyridine-3-yl)-N'-((3-methyl-1H-pyrrole-2-yl)methylene)pyrazine-2-carbohydrazide] | 500 to 1000 nM | > 1000 nM
8 | CCOc1ccc(-c2cncc(C(=O)N/N=C/c3cc(OC)ccc3C)n2)cn1 [Compound 17, (E)-6-(6-ethoxypyridine-3-yl)-N'-(5-methoxy-2-methylbenzylidene)pyrazine-2-carbohydrazide] | < 500 nM | 500 to 1000 nM
9 | CCOc1ccc(-c2cncc(C(=O)N/N=C/c3cc(OC(C)C)ccc3F)n2)cn1 [Compound 5, (E)-6-(6-ethoxypyridine-3-yl)-N'-(2-fluoro-5-isopropoxybenzylidene)pyrazine-2-carbohydrazide] | < 500 nM | < 500 nM
10 | CCOc1ccc(-c2cncc(C(=O)N/N=C/c3cc(OC4CN(C)C4)ccc3F)n2)cn1 [Compound 39, (E)-6-(6-ethoxypyridine-3-yl)-N'-(2-fluoro-5-((1-methylazetidine-3-yl)oxy)benzylidene) pyrazine-2-carbohydrazide] | > 1000 nM | > 1000 nM
11 | O=C(N/N=C/c1cc(O)cnc1F)c1cncc(-c2ccc(OC(F)F)nc2)n1 [Compound 113, (E)-6-(6-(difluoromethoxy)pyridine-3-yl)-N'-((2-fluoro-5-hydroxypyridine-3-yl)methylene)pyrazine-2-carbohydrazide] | 500 to 1000 nM | > 1000 nM
12 | CC(C)Oc1ccc(F)c(/C=N/NC(=O)c2cncc(-c3ccc(OC4CC4)nc3)n2)c1 [Compound 79, (E)-6-(6-cyclopropoxypyridine-3-yl)-N'-(2-fluoro-5-isopropoxybenzylidene) pyrazine-2-carbohydrazide] | < 500 nM | < 500 nM
13 | CCOc1ccc(-c2cncc(C(=O)N/N=C/c3cc(N(C)C)ccc3F)n2)cn1 [Compound 11, (E)-N'-(5-(dimethylamino)-2-fluorobenzylidene)-6-(6-ethoxypyridine-3-yl)pyrazine-2-carbohydrazide] | < 500 nM | > 1000 nM
14 | CC(O)c1cnc(F)c(/C=N/NC(=O)c2cncc(-c3ccc(OC(F)F)nc3)n2)c1 (stereo not drawn) [Compound 112, (E)-6-(6-(difluoromethoxy)pyridine-3-yl)-N'-((2-fluoro-5-(1-hydroxyethyl)pyridine-3-yl)methylene)pyrazine-2-carbohydrazide] | 500 to 1000 nM | > 1000 nM
15 | O=C(N/N=C/c1ccccc1F)c1cncc(-c2ccc(OC(F)(F)F)nc2)n1 [Compound 89, (E)-N'-(2-fluorobenzylidene)-6-(6-(trifluoromethoxy)pyridine-3-yl)pyrazine-2-carbohydrazide] | < 500 nM | > 1000 nM
16 | CCOc1ccc(-c2cncc(C(=O)N/N=C/c3cncc(C(C)O)c3)n2)cn1 (stereo not drawn) [Compound 24, (E)-6-(6-ethoxypyridine-3-yl)-N'-((5-(1-hydroxyethyl)pyridine-3-yl)methylene)pyrazine-2-carbohydrazide] | > 1000 nM | > 1000 nM
17 | CCOc1ccc(-c2cncc(C(=O)N/N=C/c3ccc(F)c(OC)c3)n2)cn1 [Compound 2, (E)-6-(6-ethoxypyridine-3-yl)-N'-(4-fluoro-3-methoxybenzylidene)pyrazine-2-carbohydrazide] | < 500 nM | 500 to 1000 nM
18 | CCOc1ccc(-c2cncc(C(=O)N/N=C/c3cccc(C(C)O)c3)n2)cn1 (stereo not drawn) [Compound 22, (E)-6-(6-ethoxypyridine-3-yl)-N'-(3-(1-hydroxyethyl)benzylidene)pyrazine-2-carbohydrazide] | 500 to 1000 nM | > 1000 nM
19 | [2H]C([2H])([2H])COc1ccc(-c2cncc(C(=O)N/N=C/c3cc(OC([2H])([2H])[2H])cnc3F)n2)cn1 [Compound 173, (E)-6-(6-(ethoxy-2,2,2-d3)pyridine-3-yl)-N'-((2-fluoro-5-(methoxy-d3)pyridine-3-yl)methylene)pyrazine-2-carbohydrazide] | < 500 nM | > 1000 nM
20 | CN(C)c1ccc(F)c(/C=N/NC(=O)c2cncc(-c3ccc(OC(F)(F)F)nc3)n2)c1 [Compound 93, (E)-N'-(5-(dimethylamino)-2-fluorobenzylidene)-6-(6-(trifluoromethoxy)pyridine-3-yl) pyrazine-2-carbohydrazide] | < 500 nM | > 1000 nM
21 | CCOc1ccc(F)c(/C=N/NC(=O)c2cncc(-c3ccc(OCC)nc3)n2)c1 [Compound 4, (E)-N'-(5-ethoxy-2-fluorobenzylidene)-6-(6-ethoxypyridine-3-yl)pyrazine-2-carbohydrazide] | < 500 nM | > 1000 nM
22 | CCOc1ccc(-c2nc(C(=O)N/N=C/c3cccn3C)cnc2O)cn1 [Compound 69, (E)-6-(6-ethoxypyridine-3-yl)-5-hydroxy-N'-((1-methyl-1H-pyrrole-2-yl)methylene)pyrazine-2-carbohydrazide] | > 1000 nM | > 1000 nM
23 | CCOc1ccc(-c2cncc(C(=O)N/N=C/c3cc(S(N)(=O)=O)ccc3F)n2)cn1 [Compound 14, (E)-3-((2-(6-(6-ethoxypyridine-3-yl)pyrazine-2-carbonyl)hydrazinylidene)methyl)-4-fluorobenzenesulfonamide] | > 1000 nM | > 1000 nM
24 | [2H]C([2H])([2H])Oc1cnc(F)c(/C=N/NC(=O)c2cncc(-c3ccc(OC([2H])([2H])C([2H])([2H])[2H])nc3)n2)c1 [Compound 174, (E)-6-(6-(ethoxy-d5)pyridine-3-yl)-N'-((2-fluoro-5-(methoxy-d3)pyridine-3-yl)methylene)pyrazine-2-carbohydrazide] | < 500 nM | > 1000 nM
25 | CCOc1ccc(-c2cncc(C(=O)N/N=C/c3cc(OC)cnc3F)n2)cn1 [Compound 7, (E)-6-(6-ethoxypyridine-3-yl)-N'-((2-fluoro-5-methoxypyridine-3-yl)methylene)pyrazine-2-carbohydrazide] | < 500 nM | > 1000 nM
26 | O=C(N/N=C/c1cc(OC2CC2)ccc1F)c1cncc(-c2ccc(OC3CC3)nc2)n1 [Compound 82, (E)-N'-(5-cyclopropoxy-2-fluorobenzylidene)-6-(6-cyclopropoxypyridine-3-yl)pyrazine-2-carbohydrazide] | < 500 nM | < 500 nM
27 | O=C(N/N=C/c1cc(OC2CC2)ccc1F)c1cncc(-c2ccc(OC(F)(F)F)nc2)n1 [Compound 94, (E)-N'-(5-cyclopropoxy-2-fluorobenzylidene)-6-(6-(trifluoromethoxy)pyridine-3-yl)pyrazine-2-carbohydrazide] | < 500 nM | < 500 nM
